13 compounds from ChEMBL document CHEMBL3991601, “The target landscape of clinical kinase drugs” (Science, 2017) can be followed below.

The structures appear in SMILES notation. Activity calls are given as the source filed them. Cut-off read from the data, not from the text of the source, for most assays here: actives have a measured Kd and inactives only a lower limit. A value given as a limit tells only on which side of the number the result lay.

One test addresses Wee1-like protein kinase (Homo sapiens, UniProt P30291).
Test [1] concerns the target T1, Mitogen-activated protein kinase kinase kinase kinase 3 (Homo sapiens, UniProt Q8IVH8).
T1 sequence (Q8IVH8 whole entry): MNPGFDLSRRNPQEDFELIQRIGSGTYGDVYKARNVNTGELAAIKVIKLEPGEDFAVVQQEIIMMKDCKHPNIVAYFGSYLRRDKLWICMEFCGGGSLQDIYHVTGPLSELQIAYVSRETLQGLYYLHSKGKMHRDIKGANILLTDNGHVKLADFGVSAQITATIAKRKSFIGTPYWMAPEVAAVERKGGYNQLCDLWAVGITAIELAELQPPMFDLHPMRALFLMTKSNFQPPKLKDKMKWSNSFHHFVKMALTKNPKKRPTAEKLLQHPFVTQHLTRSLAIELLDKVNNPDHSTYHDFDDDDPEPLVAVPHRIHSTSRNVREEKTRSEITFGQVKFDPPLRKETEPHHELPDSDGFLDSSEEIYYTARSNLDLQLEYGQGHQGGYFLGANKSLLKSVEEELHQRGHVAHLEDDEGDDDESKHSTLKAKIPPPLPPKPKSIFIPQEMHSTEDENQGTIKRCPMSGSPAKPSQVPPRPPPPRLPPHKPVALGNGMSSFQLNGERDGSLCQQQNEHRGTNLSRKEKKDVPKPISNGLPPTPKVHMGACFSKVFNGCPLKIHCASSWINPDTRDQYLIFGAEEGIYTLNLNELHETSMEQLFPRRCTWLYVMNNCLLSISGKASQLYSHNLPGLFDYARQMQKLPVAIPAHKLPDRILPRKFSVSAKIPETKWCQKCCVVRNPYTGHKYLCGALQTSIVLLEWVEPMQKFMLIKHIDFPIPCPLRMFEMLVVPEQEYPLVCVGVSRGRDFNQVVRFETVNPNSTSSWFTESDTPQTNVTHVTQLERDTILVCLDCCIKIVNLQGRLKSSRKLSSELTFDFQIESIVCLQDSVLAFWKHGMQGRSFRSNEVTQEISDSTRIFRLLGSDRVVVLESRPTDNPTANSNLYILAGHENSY

The target in test [2] is T2, Serine/threonine-protein kinase ULK3 (Homo sapiens, UniProt Q6PHR2).
T2 sequence (Q6PHR2 whole entry): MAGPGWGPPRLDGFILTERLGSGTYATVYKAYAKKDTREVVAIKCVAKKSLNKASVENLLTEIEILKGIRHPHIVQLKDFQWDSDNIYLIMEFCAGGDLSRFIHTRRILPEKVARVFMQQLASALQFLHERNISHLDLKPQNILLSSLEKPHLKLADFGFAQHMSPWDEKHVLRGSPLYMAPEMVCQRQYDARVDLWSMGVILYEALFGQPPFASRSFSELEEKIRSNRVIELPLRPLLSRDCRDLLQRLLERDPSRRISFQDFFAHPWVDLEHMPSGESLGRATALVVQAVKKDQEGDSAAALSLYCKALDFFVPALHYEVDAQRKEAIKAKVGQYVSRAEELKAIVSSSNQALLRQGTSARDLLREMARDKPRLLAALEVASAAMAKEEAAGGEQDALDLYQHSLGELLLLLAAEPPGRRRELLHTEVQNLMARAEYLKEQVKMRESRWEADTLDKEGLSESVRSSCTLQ

Test [3] has as its target Dual specificity protein kinase CLK1 (Homo sapiens, UniProt P49759).
Test [4] deals with T3, Exosome RNA helicase MTR4 (Homo sapiens, UniProt P42285).
T3 sequence (P42285 whole entry): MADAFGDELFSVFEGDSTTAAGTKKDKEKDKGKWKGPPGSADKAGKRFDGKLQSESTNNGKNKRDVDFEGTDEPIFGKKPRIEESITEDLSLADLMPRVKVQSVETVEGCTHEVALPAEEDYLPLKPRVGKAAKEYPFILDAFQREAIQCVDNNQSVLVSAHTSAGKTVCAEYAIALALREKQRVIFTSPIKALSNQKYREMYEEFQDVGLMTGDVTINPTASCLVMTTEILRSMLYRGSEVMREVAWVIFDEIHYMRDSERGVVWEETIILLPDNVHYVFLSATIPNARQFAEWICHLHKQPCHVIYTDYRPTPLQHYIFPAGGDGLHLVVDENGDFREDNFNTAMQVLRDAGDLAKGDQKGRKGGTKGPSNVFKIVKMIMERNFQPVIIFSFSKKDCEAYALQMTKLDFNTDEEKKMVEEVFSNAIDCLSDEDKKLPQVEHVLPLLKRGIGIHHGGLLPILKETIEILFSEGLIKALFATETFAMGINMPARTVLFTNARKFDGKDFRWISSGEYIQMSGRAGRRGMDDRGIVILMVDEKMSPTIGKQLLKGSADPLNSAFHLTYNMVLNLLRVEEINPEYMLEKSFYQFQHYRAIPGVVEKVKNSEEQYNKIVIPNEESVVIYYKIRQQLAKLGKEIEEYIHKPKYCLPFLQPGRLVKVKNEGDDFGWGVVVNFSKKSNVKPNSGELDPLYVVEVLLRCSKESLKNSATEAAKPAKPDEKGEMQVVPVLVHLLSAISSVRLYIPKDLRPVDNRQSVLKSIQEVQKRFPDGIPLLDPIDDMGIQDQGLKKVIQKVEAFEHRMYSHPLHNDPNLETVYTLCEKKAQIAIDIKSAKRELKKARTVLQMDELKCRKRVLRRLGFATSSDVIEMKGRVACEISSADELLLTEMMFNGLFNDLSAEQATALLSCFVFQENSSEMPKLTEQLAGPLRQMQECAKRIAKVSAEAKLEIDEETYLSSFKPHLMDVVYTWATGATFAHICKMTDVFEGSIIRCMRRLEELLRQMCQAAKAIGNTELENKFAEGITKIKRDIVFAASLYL

Test [5] has as its target MAP kinase-activated protein kinase 2 (Homo sapiens, UniProt P49137).
Test [6] concerns the target T4, Bifunctional phosphoribosylaminoimidazole carboxylase/phosphoribosylaminoimidazole succinocarboxamide synthetase (Homo sapiens, UniProt P22234).
T4 sequence (P22234 whole entry): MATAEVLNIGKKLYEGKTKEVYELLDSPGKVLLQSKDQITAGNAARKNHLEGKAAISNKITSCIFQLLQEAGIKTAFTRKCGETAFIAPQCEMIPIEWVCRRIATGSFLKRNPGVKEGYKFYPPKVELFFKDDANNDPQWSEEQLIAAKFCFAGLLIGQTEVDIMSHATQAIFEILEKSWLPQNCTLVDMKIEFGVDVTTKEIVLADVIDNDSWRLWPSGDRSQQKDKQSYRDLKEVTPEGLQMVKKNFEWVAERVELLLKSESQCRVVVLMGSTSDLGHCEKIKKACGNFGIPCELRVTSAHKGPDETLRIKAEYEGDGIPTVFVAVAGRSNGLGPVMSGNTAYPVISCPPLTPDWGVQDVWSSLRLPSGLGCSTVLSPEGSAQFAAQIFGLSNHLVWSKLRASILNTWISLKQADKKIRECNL
Note: in the data inactive means no Kd found up to 30 µM.

Chain of Dual specificity protein kinase CLK1 (P49759 whole entry): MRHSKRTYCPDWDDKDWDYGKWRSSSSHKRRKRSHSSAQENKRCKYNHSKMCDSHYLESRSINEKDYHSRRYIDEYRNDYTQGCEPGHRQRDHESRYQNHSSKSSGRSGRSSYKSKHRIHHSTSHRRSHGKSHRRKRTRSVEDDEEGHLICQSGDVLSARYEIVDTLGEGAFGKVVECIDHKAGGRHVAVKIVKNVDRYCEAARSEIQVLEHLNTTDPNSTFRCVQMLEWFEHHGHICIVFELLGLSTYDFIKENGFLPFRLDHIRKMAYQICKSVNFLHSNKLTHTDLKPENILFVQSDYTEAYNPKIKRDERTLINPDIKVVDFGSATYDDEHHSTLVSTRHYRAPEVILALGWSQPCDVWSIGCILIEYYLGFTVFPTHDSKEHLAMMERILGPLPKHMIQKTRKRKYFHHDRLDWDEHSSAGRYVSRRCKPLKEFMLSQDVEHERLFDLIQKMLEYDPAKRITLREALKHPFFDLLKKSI
Chain of MAP kinase-activated protein kinase 2 (P49137 whole entry): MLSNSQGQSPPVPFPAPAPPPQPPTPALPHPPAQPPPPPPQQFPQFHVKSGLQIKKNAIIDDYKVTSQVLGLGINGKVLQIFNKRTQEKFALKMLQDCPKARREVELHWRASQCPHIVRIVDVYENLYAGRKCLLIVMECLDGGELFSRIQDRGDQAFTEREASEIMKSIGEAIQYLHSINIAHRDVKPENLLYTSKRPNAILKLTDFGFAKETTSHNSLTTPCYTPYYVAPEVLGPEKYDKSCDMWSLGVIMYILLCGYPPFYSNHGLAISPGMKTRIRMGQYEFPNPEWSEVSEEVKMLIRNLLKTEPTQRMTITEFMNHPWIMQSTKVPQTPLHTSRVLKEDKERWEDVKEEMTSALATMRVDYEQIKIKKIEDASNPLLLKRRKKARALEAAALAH
Chain of Wee1-like protein kinase (P30291 whole entry): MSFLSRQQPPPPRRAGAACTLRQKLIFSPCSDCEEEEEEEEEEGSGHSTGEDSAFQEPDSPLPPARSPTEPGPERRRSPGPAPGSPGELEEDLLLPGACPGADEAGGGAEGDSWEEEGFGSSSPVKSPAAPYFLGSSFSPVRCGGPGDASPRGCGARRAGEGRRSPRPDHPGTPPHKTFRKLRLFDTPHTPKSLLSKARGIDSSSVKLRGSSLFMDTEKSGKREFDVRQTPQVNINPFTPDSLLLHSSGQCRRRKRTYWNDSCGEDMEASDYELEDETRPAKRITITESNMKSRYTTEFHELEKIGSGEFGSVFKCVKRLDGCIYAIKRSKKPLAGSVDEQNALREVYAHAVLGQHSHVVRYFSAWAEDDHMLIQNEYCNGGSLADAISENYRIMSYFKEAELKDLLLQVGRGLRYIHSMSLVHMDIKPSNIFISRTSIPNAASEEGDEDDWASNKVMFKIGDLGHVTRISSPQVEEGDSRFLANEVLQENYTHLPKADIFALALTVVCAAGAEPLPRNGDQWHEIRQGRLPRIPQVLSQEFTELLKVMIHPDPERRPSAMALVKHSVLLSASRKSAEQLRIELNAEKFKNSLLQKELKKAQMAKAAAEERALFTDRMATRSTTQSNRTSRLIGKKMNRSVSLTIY

Take `O[C@H]1CC[C@H](Nc2ncc3nc(Nc4c(F)cc(F)cc4F)n([C@H]4CCOC4)c3n2)CC1` [TANZISERTIB]: the Kd is > 30 µM (inactive) at Wee1-like protein kinase; > 30 µM (inactive) in test [1]; > 30 µM (inactive) in test [2]; > 30 µM (inactive) in test [3]; > 30 µM (inactive) in test [4]; 0.934 µM (active) in test [5]. Further, in test [6], the Kd is > 30 µM (inactive).

Take `COc1cccc2cc(-c3nc([C@H]4CC[C@H](C(=O)O)CC4)n4ncnc(N)c34)[nH]c12` [OSI-027]: the Kd (at Wee1-like protein kinase; in test [1]; in test [2]; in test [3]; in test [4]; in test [5]) was > 30 µM (inactive) throughout. The Kd in test [6] is > 30 µM (inactive).

In the case of `Cn1c(=O)n(-c2ccc(C(C)(C)C#N)cc2)c2c3cc(-c4cnc5ccccc5c4)ccc3ncc21` [DACTOLISIB], the Kd (on Wee1-like protein kinase; in test [1]; in test [2]; in test [3]; in test [4]; in test [5]) was > 30 µM (inactive) throughout. Besides, the Kd in test [6] is > 30 µM (inactive).

As to `c1cc(OCCN2CCCCC2)cc(-c2n[nH]c3ccc(-c4nc[nH]n4)cc23)c1` [CC-401], the Kd (on Wee1-like protein kinase; in test [1]; in test [2]; in test [3]; in test [4]; in test [5]) was > 30 µM (inactive) each time. Besides, in test [6], the Kd is > 30 µM (inactive).

As to `COc1cc2ncnc(Nc3ccc(O)cc3)c2cc1OC` [WHI-P131], the Kd (at Wee1-like protein kinase; in test [1]; in test [2]; in test [3]; in test [4]; in test [5]) was > 30 µM (inactive) each time. The Kd in test [6] is > 30 µM (inactive).

Consider `O=C(Nc1ccc(OC(F)(F)F)cc1)c1sccc1NCc1ccnc2ccccc12` [OSI-930], for which the Kd (at Wee1-like protein kinase; in test [1]; in test [2]; in test [3]; in test [4]; in test [5]) was > 30 µM (inactive) in each case. In addition, in test [6], the Kd was > 30 µM (inactive).

For `CC[C@@](C)(Nc1ccnc(-c2c[nH]c3ncccc23)n1)C(=O)NCC(F)(F)F` [DECERNOTINIB], the Kd (at Wee1-like protein kinase; in test [1]; in test [2]; in test [3]; in test [4]; in test [5]) was > 30 µM (inactive) throughout. Further, the Kd in test [6] was > 30 µM (inactive).

For the compound `CN1CCN(c2nc(C3=C(c4c[nH]c5ccccc45)C(=O)NC3=O)c3ccccc3n2)CC1` [SOTRASTAURIN], the Kd (on Wee1-like protein kinase; in test [1]; in test [2]; in test [3]; in test [4]; in test [5]) was > 30 µM (inactive) in each case. Besides, the Kd in test [6] is > 30 µM (inactive).

On to `CCN1CCN(Cc2ccc(Nc3ncc(F)c(-c4cc(F)c5nc(C)n(C(C)C)c5c4)n3)nc2)CC1` [ABEMACICLIB], for which the Kd is > 30 µM (inactive) at Wee1-like protein kinase; > 30 µM (inactive) in test [1]; > 30 µM (inactive) in test [2]; 0.007 µM (active) in test [3]; > 30 µM (inactive) in test [4]; > 30 µM (inactive) in test [5]. Moreover, the Kd in test [6] is > 30 µM (inactive).

For the compound `C[C@@H]1COC(Nc2ccc3ncnc(Nc4ccc(OCc5nccs5)c(Cl)c4)c3c2)=N1` [VARLITINIB], the Kd (on Wee1-like protein kinase; in test [1]; in test [2]; in test [3]; in test [4]; in test [5]) was > 30 µM (inactive) in each case. Moreover, in test [6], the Kd is > 30 µM (inactive).

Turning to `NC(=O)c1ccc(N(C(N)=O)c2c(F)cccc2F)nc1-c1ccc(F)cc1F` [VX-702], the Kd on Wee1-like protein kinase was > 30 µM (inactive); in test [1], > 30 µM (inactive); in test [2], > 30 µM (inactive); in test [3], > 30 µM (inactive); in test [4], > 30 µM (inactive); in test [5] it was 0.0003 µM (active). Further, the Kd in test [6] is > 30 µM (inactive).

For the compound `C=CC(=O)Nc1cc(Nc2nccc(-c3cn(C)c4ccccc34)n2)c(OC)cc1N(C)CCN(C)C` [OSIMERTINIB], the Kd (on Wee1-like protein kinase; in test [1]; in test [2]; in test [3]; in test [4]; in test [5]) was > 30 µM (inactive) throughout. Further, the Kd in test [6] was > 30 µM (inactive).

In the case of `C=CCN(/C=C1/C(=O)O[C@H](COC)[C@@]2(C)C1=C(O)C(=O)C1=C2[C@H](OC(C)=O)C[C@]2(C)C(=O)CC[C@@H]12)CC=C` [SONOLISIB], the Kd (on Wee1-like protein kinase; in test [1]; in test [2]; in test [3]; in test [4]; in test [5]) was > 30 µM (inactive) throughout. Moreover, the Kd in test [6] is > 30 µM (inactive).
